According to BigSolDB 2.1:

CC1=C(O)C(=O)C(C)O1 (stereo not drawn)
solubility (mole fraction)
Conditions | 278.15 K | 283.15 K | 288.15 K | 293.15 K | 298.15 K | 303.15 K | 308.15 K | 313.15 K
in 1,4-dioxane | 0.192 | 0.22 | 0.248 | 0.282 | 0.315 | 0.357 | 0.4 | 0.445
in DMF | 0.256 | 0.281 | 0.307 | 0.336 | 0.368 | 0.402 | 0.439 | 0.479
in acetone | 0.127 | 0.151 | 0.177 | 0.209 | 0.244 | 0.284 | 0.329 | 0.381
in acetonitrile | 0.0733 | 0.0896 | 0.11 | 0.134 | 0.164 | 0.202 | 0.248 | 0.303
in chloroform | 0.256 | 0.281 | 0.307 | 0.336 | 0.368 | 0.402 | 0.439 | 0.479
in cyclohexanone | 0.105 | 0.128 | 0.155 | 0.187 | 0.225 | 0.269 | 0.318 | 0.372
in dichloromethane | 0.139 | 0.16 | 0.189 | 0.219 | 0.254 | 0.292 | 0.337 | 0.386
in isopropanol | 0.181 | 0.211 | 0.24 | 0.272 | 0.309 | 0.348 | 0.387 | 0.435
in methyl acetate | 0.139 | 0.16 | 0.189 | 0.219 | 0.254 | 0.292 | 0.337 | 0.386
in n-propyl acetate | 0.139 | 0.16 | 0.189 | 0.219 | 0.254 | 0.292 | 0.337 | 0.386
in sec-butanol | 0.105 | 0.128 | 0.155 | 0.187 | 0.225 | 0.269 | 0.318 | 0.372
